Measurements reported in PubChem BioAssay AID1963969 (Molecular Pharmacology Branch, DTP, NCI, 2024).
“And” between values parts separate entries of the source, which are not always exact repeats. Identical values can stand only once. Each block holds one compound with its values, some of them ahead of it.

Test system: 817829-284-R-J1-PDC multi-cell spheroid viability
Assay: Anticancer human tumor 817829-284-R-J1-PDC patient-derived colon adenocarcinoma cell line growth inhibition [PI3K]
Conditions: for viability, T/C: stronger effect = lower value
Outline: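 Three cell types, namely tumor cells, endothelial cells and mesenchymal stem cells, formed each spheroid. Combinations with four PI3K inhibitors were screened at clinically achievable concentrations decreasing by half-log, and spheroid viability was recorded.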

[1] = curve of first compound, second compound 0.0316 µM
[2] = curve of first compound, second compound 0.1 µM
[3] = curve of first compound, second compound 0.316 µM
[4] = curve of first compound, second compound 1 µM
[5] = curve of first compound, second compound 3.16 µM
[6] = curve of first compound, second compound 10 µM
[7] = second compound 0.0316 µM, first compound 0.0316 µM
[8] = second compound 0.0316 µM, first compound 0.1 µM
[9] = second compound 0.0316 µM, first compound 0.316 µM
[10] = second compound 0.0316 µM, first compound 1 µM
[11] = second compound 0.0316 µM, first compound 3.16 µM
[12] = second compound 0.0316 µM, first compound 10 µM
[13] = second compound 0.1 µM, first compound 0.0316 µM
[14] = second compound 0.1 µM, first compound 0.1 µM
[15] = second compound 0.1 µM, first compound 0.316 µM
[16] = second compound 0.1 µM, first compound 1 µM
[17] = second compound 0.1 µM, first compound 3.16 µM
[18] = second compound 0.1 µM, first compound 10 µM
[19] = second compound 0.316 µM, first compound 0.0316 µM
[20] = second compound 0.316 µM, first compound 0.1 µM
[21] = second compound 0.316 µM, first compound 0.316 µM
[22] = second compound 0.316 µM, first compound 1 µM
[23] = second compound 0.316 µM, first compound 3.16 µM
[24] = second compound 0.316 µM, first compound 10 µM
[25] = second compound 1 µM, first compound 0.0316 µM
[26] = second compound 1 µM, first compound 0.1 µM
[27] = second compound 1 µM, first compound 0.316 µM
[28] = second compound 1 µM, first compound 1 µM
[29] = second compound 1 µM, first compound 3.16 µM
[30] = second compound 1 µM, first compound 10 µM
[31] = second compound 3.16 µM, first compound 0.0316 µM
[32] = second compound 3.16 µM, first compound 0.1 µM
[33] = second compound 3.16 µM, first compound 0.316 µM
[34] = second compound 3.16 µM, first compound 1 µM
[35] = second compound 3.16 µM, first compound 3.16 µM
[36] = second compound 3.16 µM, first compound 10 µM
[37] = second compound 10 µM, first compound 0.0316 µM
[38] = second compound 10 µM, first compound 0.1 µM
[39] = second compound 10 µM, first compound 0.316 µM
[40] = second compound 10 µM, first compound 1 µM
[41] = second compound 10 µM, first compound 3.16 µM
[42] = second compound 10 µM, first compound 10 µM
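Further: spheroids exposed to agents for seven days before readout.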
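Wherever viability, T/C is given: percent of vehicle DMSO control viability which is 100%.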

IC50 [1]: 7.87 µM
IC50 [2]: 4.8 µM
IC50 [3]: 6.44 µM
IC50 [4]: 4.65 µM
IC50 [5]: 4.88 µM
IC50 [6]: 4.81 µM
Structure (SMILES): Cn1nccc1Nc1nccc(-c2ccn(C(CO)c3ccc(Cl)c(F)c3)c(=O)c2)n1 (configuration not stated) + Cc1nc(NC(=O)N2CCCC2C(N)=O)sc1-c1ccnc(C(C)(C)C(F)(F)F)c1
viability, T/C [7]: 83%
viability, T/C [8]: 66.9%
viability, T/C [9]: 92.2%
viability, T/C [10]: 90.7%
viability, T/C [11]: 81.6%
viability, T/C [12]: 41.6%
viability, T/C [13]: 79.8%
viability, T/C [14]: 77.3%
viability, T/C [15]: 76.3%
viability, T/C [16]: 75.3%
viability, T/C [17]: 63.2%
viability, T/C [18]: 26.6%
viability, T/C [19]: 87.8%
viability, T/C [20]: 99.5%
viability, T/C [21]: 72%
viability, T/C [22]: 74.6%
viability, T/C [23]: 81.6%
viability, T/C [24]: 30.6%
viability, T/C [25]: 68.6%
viability, T/C [26]: 69%
viability, T/C [27]: 62.1%
viability, T/C [28]: 107%
viability, T/C [29]: 60.9%
viability, T/C [30]: 28.5%
viability, T/C [31]: 54.2%
viability, T/C [32]: 102%
viability, T/C [33]: 86.1%
viability, T/C [34]: 87.3%
viability, T/C [35]: 67.3%
viability, T/C [36]: 21.6%
viability, T/C [37]: 109%
viability, T/C [38]: 103%
viability, T/C [39]: 101%
viability, T/C [40]: 94.2%
viability, T/C [41]: 69%
viability, T/C [42]: 16.4%

IC50 (curve of compound): 0.901 µM and 0.649 µM
Structure (SMILES): Cn1cnc2c(F)c(Nc3ccc(Br)cc3Cl)c(C(=O)NOCCO)cc21
viability, T/C (compound 0.00949 µM): 87.3% and 90.1%
viability, T/C (compound 0.03 µM): 70.7% and 64.5%
viability, T/C (compound 0.0949 µM): 65% and 73.3%
viability, T/C (compound 0.3 µM): 62.5% and 52.7%
viability, T/C (compound 0.949 µM): 55.5% and 55.6%
viability, T/C (compound 3 µM): 33.4% and 21.9%

IC50 (compound alone, run of 04/24/2023): > 10 µM
Structure (SMILES): Cc1nc(NC(=O)N2CCCC2C(N)=O)sc1-c1ccnc(C(C)(C)C(F)(F)F)c1 (configuration not stated)
viability, T/C (compound 10 µM): 68.7% [middle of 6 runs]

IC50 [1]: 0.0197 µM
IC50 [2]: 0.0339 µM
IC50 [3]: 0.0158 µM
IC50 [4]: 0.0195 µM
IC50 [5]: 0.00943 µM
IC50 [6]: 0.0109 µM
Structure (SMILES): CC(C)n1nc(-c2ccc3oc(N)nc3c2)c2c(N)ncnc21 + CC(Nc1ncnc2nc[nH]c12)c1cc2cccc(Cl)c2c(=O)n1-c1ccccc1
viability, T/C (second compound 0.0316 µM, first compound 0.000316 µM): 74.9%
viability, T/C (second compound 0.0316 µM, first compound 0.001 µM): 107%
viability, T/C (second compound 0.0316 µM, first compound 0.00316 µM): 57.3%
viability, T/C (second compound 0.0316 µM, first compound 0.01 µM): 62.7%
viability, T/C [7]: 44.8%
viability, T/C [8]: 18.1%
viability, T/C (second compound 0.1 µM, first compound 0.000316 µM): 100%
viability, T/C (second compound 0.1 µM, first compound 0.001 µM): 121%
viability, T/C (second compound 0.1 µM, first compound 0.00316 µM): 64%
viability, T/C (second compound 0.1 µM, first compound 0.01 µM): 80%
viability, T/C [13]: 56.7%
viability, T/C [14]: 18.7%
viability, T/C (second compound 0.316 µM, first compound 0.000316 µM): 135%
viability, T/C (second compound 0.316 µM, first compound 0.001 µM): 77.2%
viability, T/C (second compound 0.316 µM, first compound 0.00316 µM): 94.2%
viability, T/C (second compound 0.316 µM, first compound 0.01 µM): 59.9%
viability, T/C [19]: 31.3%
viability, T/C [20]: 27.5%
viability, T/C (second compound 1 µM, first compound 0.000316 µM): 89.4%
viability, T/C (second compound 1 µM, first compound 0.001 µM): 124%
viability, T/C (second compound 1 µM, first compound 0.00316 µM): 74.4%
viability, T/C (second compound 1 µM, first compound 0.01 µM): 66.3%
viability, T/C [25]: 41.9%
viability, T/C [26]: 18.9%
viability, T/C (second compound 3.16 µM, first compound 0.000316 µM): 106%
viability, T/C (second compound 3.16 µM, first compound 0.001 µM): 86.4%
viability, T/C (second compound 3.16 µM, first compound 0.00316 µM): 96%
viability, T/C (second compound 3.16 µM, first compound 0.01 µM): 47.4%
viability, T/C [31]: 44.2%
viability, T/C [32]: 23.8%
viability, T/C (second compound 10 µM, first compound 0.000316 µM): 80%
viability, T/C (second compound 10 µM, first compound 0.001 µM): 68.5%
viability, T/C (second compound 10 µM, first compound 0.00316 µM): 106%
viability, T/C (second compound 10 µM, first compound 0.01 µM): 52.1%
viability, T/C [37]: 30.3%
viability, T/C [38]: 17.8%

IC50 (curve of first compound, second compound 0.00316 µM): 4.08 µM
IC50 (curve of first compound, second compound 0.01 µM): 3.7 µM
IC50 [1]: 2.67 µM
IC50 [2]: 0.605 µM
IC50 [3]: 0.0316 µM
IC50 [4]: 2.79 µM
Structure (SMILES): CC1(C)CCC(CN2CCN(c3ccc(C(=O)NS(=O)(=O)c4ccc(NCC5CCOCC5)c([N+](=O)[O-])c4)c(Oc4cnc5[nH]ccc5c4)c3)CC2)=C(c2ccc(Cl)cc2)C1 + CC(Nc1ccc2c(c1)OCCn1cc(N3C(=O)OCC3C(F)F)nc1-2)C(N)=O
viability, T/C (second compound 0.00316 µM, first compound 0.0316 µM): 74.4%
viability, T/C (second compound 0.00316 µM, first compound 0.1 µM): 87.8%
viability, T/C (second compound 0.00316 µM, first compound 0.316 µM): 38.3%
viability, T/C (second compound 0.00316 µM, first compound 1 µM): 71.4%
viability, T/C (second compound 0.00316 µM, first compound 3.16 µM): 62.4%
viability, T/C (second compound 0.00316 µM, first compound 10 µM): 5.89%
viability, T/C (second compound 0.01 µM, first compound 0.0316 µM): 55.4%
viability, T/C (second compound 0.01 µM, first compound 0.1 µM): 64.8%
viability, T/C (second compound 0.01 µM, first compound 0.316 µM): 106%
viability, T/C (second compound 0.01 µM, first compound 1 µM): 69.1%
viability, T/C (second compound 0.01 µM, first compound 3.16 µM): 57.3%
viability, T/C (second compound 0.01 µM, first compound 10 µM): 5.49%
viability, T/C [7]: 66.2%
viability, T/C [8]: 107%
viability, T/C [9]: 60.8%
viability, T/C [10]: 65.3%
viability, T/C [11]: 49.8%
viability, T/C [12]: 6.29%
viability, T/C [13]: 78.9%
viability, T/C [14]: 54.8%
viability, T/C [15]: 58.1%
viability, T/C [16]: 39.4%
viability, T/C [17]: 39.2%
viability, T/C [18]: 3.75%
viability, T/C [19]: 45.7%
viability, T/C [20]: 44.6%
viability, T/C [21]: 59.5%
viability, T/C [22]: 41.2%
viability, T/C [23]: 60.4%
viability, T/C [24]: 3.08%
viability, T/C [25]: 77.2%
viability, T/C [26]: 44%
viability, T/C [27]: 70.8%
viability, T/C [28]: 59%
viability, T/C [29]: 49%
viability, T/C [30]: 6.25%

IC50 [1]: < 0.0316 µM
IC50 [2]: < 0.0316 µM
IC50 [3]: < 0.0316 µM
IC50 [4]: < 0.0316 µM
IC50 [5]: < 0.0316 µM
IC50 [6]: < 0.0316 µM
Structure (SMILES): CC1(C)CCC(Nc2ncc(C(F)(F)F)c(-c3c[nH]c4c(P(C)(C)=O)c(C#N)ccc34)n2)CN1 (configuration not stated) + Cc1nc(NC(=O)N2CCCC2C(N)=O)sc1-c1ccnc(C(C)(C)C(F)(F)F)c1
viability, T/C [7]: 30.4%
viability, T/C [8]: 24.9%
viability, T/C [9]: 26.7%
viability, T/C [10]: 32.1%
viability, T/C [11]: 30.8%
viability, T/C [12]: 1.2%
viability, T/C [13]: 27.2%
viability, T/C [14]: 24.7%
viability, T/C [15]: 32.2%
viability, T/C [16]: 39.8%
viability, T/C [17]: 28.7%
viability, T/C [18]: 1.28%
viability, T/C [19]: 25%
viability, T/C [20]: 27.7%
viability, T/C [21]: 26.9%
viability, T/C [22]: 25.9%
viability, T/C [23]: 32.7%
viability, T/C [24]: 1.02%
viability, T/C [25]: 26.6%
viability, T/C [26]: 26.6%
viability, T/C [27]: 31.8%
viability, T/C [28]: 33.4%
viability, T/C [29]: 30.6%
viability, T/C [30]: 1.41%
viability, T/C [31]: 29.6%
viability, T/C [32]: 26.2%
viability, T/C [33]: 28.6%
viability, T/C [34]: 28.7%
viability, T/C [35]: 29%
viability, T/C [36]: 0.82%
viability, T/C [37]: 23.9%
viability, T/C [38]: 28.4%
viability, T/C [39]: 24.6%
viability, T/C [40]: 21.3%
viability, T/C [41]: 21.2%
viability, T/C [42]: 0.69%
